Measurements: publication PMC10671498, “Antiproliferative and Cytotoxic Properties of Propynoyl Betulin Derivatives against Human Ovarian Cancer Cells: In Vitro Studies” (International Journal of Molecular Sciences, 2023)
Read-outs that look alike come from different tables or passages of the source.

Tests used:
SK-OV-3 cells [1] = assay: SRB cell proliferation assay, SK-OV-3; assay type: cell-based, human; conditions: for IC50: Homo sapiens
Experimental: This study used ovarian cancer cell lines, which are part of the panel of cell lines used as part of the NCI-60 Human Cell Lines Screen program, characterized by overexpression of the c-erbB2/neu (HER2) receptor [62, 63]. The human ovarian cancer cell lines (SK-OV-3 and OVCAR-3) were purchased from the American Type Culture Collection (ATCC®, Manassas, Virginia, USA). SK-OV-3 cells (ATCC No. HTB-77™) were cultured in McCoy’s 5A medium containing D-glucose (3 g/L), L-glutamine (0.219 g/L), and sodium bicarbonate (2.2 g/L) supplemented with 10% fetal bovine serum, 10 mM HEPES (pH 7.3–7.5), 100 U/mL penicillin, and 100 μg/mL streptomycin (all from Sigma Aldrich).
Betulin 1 and its derivatives were dissolved in dimethyl sulfoxide (DMSO; Sigma Aldrich) as a 15 mM stock solution. Working solutions were prepared through the dilution of stock solutions with culture medium. The final DMSO concentration in culture media was adjusted to 0.2%. The effect of tested compounds on the proliferation of SK-OV-3 and OVCAR-3 cells was measured using the In Vitro Toxicology Assay Kit, Sulforhodamine B based (Sigma Aldrich). Cells were seeded in 96-well plates (Greiner Bio-One, Kremsmünster, Austria) at an initial density of 3 × 10^3 cells per well in 200 µL of culture medium. After 24 h of incubation, betulin 1 and its derivatives at a concentration range of 0.1 μM to 30 μM were added to the wells. Control cultures were treated with vehicle alone (0.2% DMSO). The incubation periods for cells with test compounds were 1 day, 3 days, and 5 days. After appropriate incubation periods, culture media were removed, and cells were fixed in 10% trichloroacetic acid solution for 60 min at 4 °C. After fixation, the TCA solution was removed, and the plates were washed three times with deionized water (300 μL/well) and dried. At the next step, cells were stained with 0.4% sulforhodamine B for 30 min. The excess dye was removed by washing three times with 1% (vol/vol) acetic acid. The protein-bound dye was dissolved in 200 μL 10 mM Tris base solution. Absorbance was measured at 570 nm and 690 nm (reference wavelength) using the MRX Revelation plate reader (Dynex Technologies, Chantilly, VA, USA).
GraphPad Prism 10.0.2 (GraphPad Software Inc., San Diego, CA, USA) software was used for calculations and the statistical analysis of the IC50 values (Table 1). IC50 was determined by using the “nonlinear regression” mode, and the “log(inhibitor) vs. normalised response—Variable slope” equation was chosen in GraphPad Prism software for calculations. The obtained data were normalized to run from 100% down to 0%, and logarithms of concentration were used. Graphs (Figure 2, Figure 3, Figure 4, Figure 5 and Figure 8, and Supplementary Figure S1) were also prepared using this software. In the case of the lack of normal distribution or homogeneity of variances, the remaining results were analyzed using a non-parametric Kruskal–Wallis test with multiple comparisons. Post hoc analysis was performed with the non-parametric equivalent of Tukey’s test. A p value of <0.05 was considered statistically significant. Otherwise, a one-way ANOVA followed by a Tukey’s post hoc test was applied. t-tests was used to perform pairwise comparisons between group means. Analysis was performed using Statistica 13.1 software (StatSoft, Tulsa, OK, USA).

OVCAR-3 cells = assay: DNA fragmentation assay (Cell Death Detection ELISA, cytoplasmic fraction), OVCAR-3; assay type: cell-based, human; conditions: OVCAR-3, 24 h; for DNA fragmentation (number of mono- and oligonucleosomes): 3 µM and 10 µM
Experimental: Fragmentation of genomic DNA was determined by means of the Cell Death Detection ELISAPLUS kit (Roche, Basel, Switzerland). This method rests on the immunoenzymatic detection of DNA–histone complexes in the cytoplasmic cell fraction or cell culture supernatants. Cells were plated and cultured in 96-well plates (Greiner Bio-One) at the initial density of 5 × 10^3 cells per well in 100 µL of culture medium. Cells were allowed to attach and grow for 1 day prior to the addition of test reagents. Then, the media were replaced with the working solutions (3 µM, 10 µM, 30 µM), and cells were exposed to compounds 2–6 for 24 h. In some cases, 5 µM cyclosporin A (CsA, an inhibitor of the mitochondrial permeability transition) was added to the cells 30 min before treatment with the betulin derivative. Subsequently, cells were incubated concomitantly with both compounds. After a 24 h incubation period, plates were centrifuged (200× g; 10 min), media were removed, and cells were lysed for 30 min at room temperature. At the next step, the lysates were again spun (200× g; 10 min), and 20 µL of supernatants (cytoplasmic fractions) was moved to the new 96-well streptavidin-coated plate. In one experiment, the presence of mono- and oligonucleosomes was determined in 20 µL samples of centrifuged culture supernatants (media) to detect the permeability of plasma membrane (considered as an indicator of cell necrosis). Then, the sandwich ELISA assay was fulfilled according to the manufacturer’s protocol. Absorbance was measured at 405 nm and 490 nm (reference wavelength), and the enrichment factor of the cytoplasmic (or supernatant) fraction in mono- and oligonucleosomes was calculated according to the formula: EF = absorbance of sample cells/absorbance of control cells.
A high EF index in the cytoplasmic fraction (resulting from DNA fragmentation while maintaining the tightness of cell membranes) is a typical indicator of the relatively early stage of apoptosis.

SK-OV-3 cells [2] = assay: Cell morphology, acridine orange staining; assay type: cell-based, human; conditions: SK-OV-3, 24 h, 30 µM
Experimental: Acridine orange staining was preceded by preparation of a cell culture at a density 1 × 10^5 per well in a 24-well glass bottom plate (NEST Biotechnology, Wuxi, China). Cells were cultured for 24 h in a standard medium (1 mL), after which the medium was replaced with a new medium containing 10 µM and 30 µM of the test compounds or with 0.2% DMSO (control). Cells were incubated in the presence of test substances for 24 h in a CO2 incubator. To each of the test wells, acridine orange dissolved in PBS (the final concentration was 1 µg/mL) was added and incubated for 5 min in a CO2 incubator. After incubation, the cells were observed under a Nikon Eclipse TS-100F microscope (Nikon Instruments Europe, Amstelveen, The Netherlands). The photographs were taken with a Nikon DS-Fi1 digital camera, supported by the NIS-Elements application.

SK-OV-3 cells [3] = assay: TMRM analysis of mitochondrial membrane potential; assay type: cell-based, human; conditions: SK-OV-3, 3 h, 30 µM
Experimental: Tetramethylrhodamine methyl ester (Sigma Aldrich) was used for the assessment of changes in the transmembrane potential of mitochondria. TMRM is a fluorescent cationic dye accumulating in mitochondria in a potential-dependent manner. Cell cultures were prepared as described above for acridine orange staining. Cells were exposed to test solutions for 3 h, and then TMRM was added (final concentration 100 nM) followed by incubation for 30 min in the CO2 incubator. Prior to observation, the plates were centrifuged (250× g, 5 min), and the medium was changed to PBS. The cells were analyzed under the Nikon Eclipse TS-100F microscope and photographed.

SNB-19 cell line = system: SNB-19 cell line; parameters: method as in PMID 33572631; conditions: cited from earlier work

## C=C(C)[C@@H]1CC[C@]2(CO)CC[C@]3(C)[C@H](CC[C@@H]4[C@@]5(C)CC[C@H](O)C(C)(C)[C@@H]5CC[C@]43C)[C@@H]12 [Compound 1, lup-20(29)-ene-3β,28-diol, reference compound]
SK-OV-3 cells [1]; 72 h, SK-OV-3, 3 days treatment, SRB assay, read-out: IC50
  IC50: 8210 nM
SK-OV-3 cells [1]; 120 h, SK-OV-3, 5 days treatment, SRB assay, read-out: IC50
  IC50: 4590 nM
OVCAR-3 cells
  DNA fragmentation (number of mono- and oligonucleosomes): comparable to the control
OVCAR-3 cells; 30 µM
  DNA fragmentation (enrichment factor): caused an increase in DNA fragmentation
SK-OV-3 cells [2]
  cell morphology (acridine orange): typical apoptotic morphology

## C#CC(=O)OC[C@]12CC[C@@H](/C(C)=C/P(=O)(OCC)OCC)C1C1CCC3[C@@]4(C)CC[C@H](O)C(C)(C)C4CC[C@@]3(C)[C@]1(C)CC2 (some centres unmarked) [Compound 6, E-29-diethoxyphosphoryl-28-O-propynoylbetulin]
SK-OV-3 cells [1]; SK-OV-3, 72 h
  IC50: 290 nM
SK-OV-3 cells [1]; SK-OV-3, 120 h
  IC50: 260 nM
SK-OV-3 cells [1]; SK-OV-3, SRB assay, 0.1–30 µM
  concentration at which antiproliferative activity (decrease in the number of cells) was evident: 1 µM
OVCAR-3 cells
  DNA fragmentation (number of mono- and oligonucleosomes): slightly smaller effect than the lowest concentration of compound 4
SK-OV-3 cells [3]
  mitochondrial membrane potential (TMRM fluorescence): reduced the mitochondrial membrane potential
SNB-19 cell line
  IC50: 430 nM
